The test system of assay [1] is human embryonic stem cell line H9. The assay is described as follows: CXCR4 expression by FACS, Activin A +/- Wnt3a, Example 34. It is filed as cell-based. The conditions noted are these: end of the 5th day, H9 passage 54. As for the experimental part: The effect that Wnt-3a treatment has on cytokine expression was analyzed using a protein array. Cells of the human embryonic stem cell line H9 were cultured according to the methods described in Example 15. At passage 54, cells were differentiated in the presence of 100 ng/mlActivinA+/−10 ng/mlWnt3a for 2 days in 0.5% FBS DMEM/F12.
At the end of the 5th day, CXCR4 expression was determined by FACS for each treatment group.
A general note: A flow cytometer gives signals particle by particle.

For assay [2] the test system is unchanged. Briefly: PCR of endoderm, extraembryonic, mesoderm and ectoderm markers after activin A treatment on MEFs. The format is cell-based. From the text: (§1) The level of expression of definitive endoderm markers was examined by PCR (FIG. 1), FACS (results summarized in Table II), and immunohistochemistry (FIG. 2).
Cells were harvested at the time points indicated in FIG. 3 and assayed by PCR for the expression of genes shown (FIGS. 3, 4 and 5).
RNA extraction, purification, and CDNA synthesis: RNA samples were purified by binding to a silica-gel membrane (Rneasy Mini Kit, Qiagen, CA) in the presence of an ethanol-containing, high-salt buffer followed by washing to remove contaminants. The RNA was further purified using a TURBO DNA-free kit (Ambion, INC), and high-quality RNA was then eluted in water. Yield and purity were assessed by A260 and A280 readings on a spectrophotometer. cDNA copies were made from purified RNA using an ABI (ABI, CA) high capacity cDNA archive kit.
(§2) Final data were expressed relative to a calibrator sample.

For assay [3] the test system is unchanged. Briefly: Formation of pancreatic endocrine cells with gamma-secretase inhibitor L-685,458 (PCR). It is filed as cell-based. The conditions noted are these: activin A alone or in combination with retinoic acid and FGFs. The procedure: After this time interval, the cells were then treated for six days with combinations of retinoic acid and FGF as outlined in Example 2, then the culture medium was removed and replaced with medium comprising DMEM/F12 with 2% FBS, containing the γ-secretase inhibitors L-685,458 at 10 μM for three days.
as §2

For assay [4] the test system is unchanged. The assay is described as follows: Formation of pancreatic endocrine cells expressing Nkx2.2 (PCR). It is filed as cell-based. The procedure: Cells were continuously cultured for another 3 to 5 days in basal medium with retinoic acid at 1 μM, alone or with bFGF. RNA samples were harvested from cells at various time points along this process to help evaluate the directed differentiation of the cells. Furthermore, culture medium and factors were regularly removed and replenished throughout the differentiation protocol.

Assay [5] shares this test system. The conditions noted are these: activin A or retinoic acid alone.
Method: Cultures were harvested and samples of mRNA were collected for analysis.
Cells seeded on 0.1% Matrigel (BD) coated dishes were fixed with 4% paraformaldheyde for 20 min at room temperature. Fixed cells were blocked for 1 h at room temperature with PBS/0.1%BSA/10% normal chick serum /0.5% Triton X-100 and then incubated overnight with primary antibodies in PBS/0.1%BSA/10% normal chick serum at 4° C. After three washes in PBS/0.1% BSA, fluorescent secondary antibodies at a 1:100 dilution in PBS were incubated with cells for 1 h at room temperature to allow binding. Control samples included reactions where the primary antibody was omitted or where the primary antibody was replaced with corresponding matched negative control immunoglobulins at the same concentration as the primary antibodies. […]
Real-time PCR amplification and quantitative analysis: Unless otherwise stated, all reagents were purchased from Applied Biosystems. […] For each primer/probe set, a Ct value was determined as the cycle number at which the fluorescence intensity reached a specific value in the middle of the exponential region of amplification. Relative gene expression levels were calculated using the comparative Ct method. […] The normalized amount of target was calculated as 2-ΔCt, assuming amplification to be 100% efficiency. […]
Assay [6] relates to H9P49 and H1P46 embryonic stem cells. Briefly: Definitive endoderm on MATRIGEL: effective dose of activin A with GSK-3B inhibitor or Wnt-3a. It is filed as cell-based, human. From the text:
FIG. 31 panels a-d is for H9P49 cells and panels e-f is for H1P46 cells.

The test system of assay [7] is human embryonic stem cell line H1. The assay is described as follows: FACS of protein markers after activin A treatment (Table IIC). It is filed as cell-based. The conditions noted are these: 5-day AA treatment.
Text: as §1
(§3) CXCR4 positive cells were also highly positive for C-kit, EPCAM, CD99, and negative for CD9. The expression pattern for these markers was consistent among all three hES cell lines examined (Table IIB for H7 and Table IIC for H1). […] In parallel, almost 100% of the differentiated cells were […] (FIG. 2).
(§4) Adhered cells were removed from culture plates by five-minute incubation with TrypLE™ Express solution (Invitrogen, CA). Released cells were resuspended in human embryonic stem cell culture medium and recovered by centrifugation, followed by washing and resuspending the cells in a staining buffer consisting of 2% BSA, 0.05% sodium azide in PBS (Sigma, MO). As appropriate, the cells were Fc-receptor blocked for 15 minutes using a 0.1% γ-globulin (Sigma) solution. […] Controls included appropriate isotype matched antibodies, unstained cells, and cells stained only with secondary conjugated antibody. All incubations with antibodies were performed for 30 mins at 4° C. after which the cells were washed with the staining buffer. Samples that were stained with unconjugated primary antibodies were incubated for an additional 30 mins at 4° C. with secondary conjugated PE or —APC labeled antibodies. See Table I for a list of secondary antibodies used. Washed cells were pelleted and resuspended in the staining buffer, and the cell surface molecules were identified using a FACS Array (BD Biosciences) instrument, collecting at least 10,000 events.

Assay [8] has as its system human embryonic stem cell line H9. Briefly: FACS of protein markers after activin A treatment, hES cells on mouse embryonic fibroblasts (Table IIA). The conditions noted are these: for CD9 protein expression / CXCR4 protein expression / ECAM protein expression / NCAM protein expression / SSEA-3 protein expression: H9, FACS. It is filed as cell-based.
Text: as §1, §3, §4

Assay [9] has as its system SA002 P38 cells. The assay is described as follows: Differentiation of SA002 ES line on […] to definitive endoderm (real-time PCR, FACS). It is filed as cell-based, human. The conditions noted are these: 20 ng/ml Wnt-3a with 100 ng/ml activin A. The text has this:
Expression of CXCR4 is depicted in FIG. 45: a) AA treatment b) AA+Wnt-3a c) AA+GSK-3B inhibitor.

Assay [10] has as its system H7P44 and H9P46 embryonic stem cells. The assay is described as follows: Definitive endoderm on […]: role of Wnt ligands (FACS CXCR4, real-time PCR). The format is cell-based, human. The procedure:
In some of the cultures 20 ng/ml Wnt-3a (Catalog#1324-WN-002, R&D Systems, MN), 20 ng/ml Wnt-5a (Catalog#654-WN-010, R&D Systems, MN), 25 ng/ml Wnt-7a (Catalog#3008-WN-025, R&D Systems, MN), or 25 ng/ml Wnt-5b (Catalog#3006-WN-025, R&D Systems, MN) was added throughout the five day treatment. FIG. 24 depicts phase contrast images of H9P46 definitive endoderm culture in the presence of high concentration of (a) AA or (b) AA+20 ng/ml Wnt-3a. FIG. 25 depicts the expression of CXCR4 by FACS at day 5 for H7P44, and H9P46 lines cultured on […]™ (1:30 dilution) and exposed to the DE protocol+Wnt-3a (FIG. 25, panels b and d) and −Wnt-3a (FIG. 25, panels a and c).

Regarding “Activin A: activin A (a member of the TGFβ superfamily), R&D Systems; 'w/o wnt' in Table VII = 100 ng/ml Activin A without Wnt3a”, in [1], the “cells expressing CXCR4 (FACS)” value came out at 1%. Moreover, the Oct4 expression entry in assay [2] (Activin A 100 ng/ml up to seven days) is given as “no significant decrease”. The Pdx1 gene expression entry in assay [2] (Activin A 100 ng/ml up to seven days, 0% to 2% serum) is on record as “no Pdx1 gene expression was observed”. Besides, in assay [2] (H9, 100 ng/ml activin A), the “expression of Brachyury” value is given as “decreased” and the “expression of neuronal marker Zic1” value is reported as “no effect”. For the same substance, in [2] (H9, 100 ng/ml activin A, 1-7 days), the “expression of extraembryonic endoderm markers Sox7 and AFP” value was “time-dependent decrease”. The “anterior endoderm markers Cerberus, Otx-1 and Hex genes” value in [2] (H9, 100 ng/ml activin A, three and five days) was “significant up regulation”. In addition, in assay [2] (H9, 100 ng/ml activin A, two, five and eight days), the “expression of CXCR4, GATA4, HNF-3beta, Mixl1 and Sox-17 mRNA” value is on record as “time-dependent increase”. In assay [3], the “expression of Ngn3 or insulin” value is on record as “did not induce”. Moreover, the “increase of Nkx2.2 expression compared to samples without activin A” value in assay [4] (50 ng/ml activin A with 50 ng/ml basic FGF and 1 μM Retinoic Acid) is given as “about 35 fold”. Besides, in [4] (activin A for the first three days of culture), the Pdx1 expression result was “maintained Pdx1 expression at a level similar to samples containing no activin A”. In addition, the “expression of Pdx1” value in assay [5] was “did not induce”. Besides, the “expression of definitive endoderm markers” value in [6] (50 ng/ml of AA+20 ng/ml of Wnt-3A or 100 nM GSK-3B inhibitor IX) is recorded as “robust expression”. Further, in assay [6] (lower doses of activin A), the “cell fate at lower doses of activin A” value is given as “formation of extraembryonic endoderm”. Moreover, in assay [7], the “CXCR4+” value was 92.78%, the “CXCR4+/C-kit+” value turned out to be 92.90%, the “CXCR4+/CD9+” value was 7.03% and the “CXCR4+/CD99+” value is recorded as 88.78%. Besides, in assay [7], the “CXCR4+/EPCAM” value amounted to 87.99%. The “expression of E-cadherin and N-cadherin” value in assay [8] (FACS, following activin A treatment) is “did not change”. In assay [8] (2-DAY activin A 100 ng/ml), the CD9 protein expression is listed as 29.42%, the CXCR4 protein expression was determined as 20.2%, the ECAM protein expression turned out to be 20.87% and the NCAM protein expression is on record as 5.04%. In addition, in assay [8] (2-DAY activin A 100 ng/ml), the SSEA-3 protein expression is 92.14%. In addition, in assay [8] (5-DAY activin A 100 ng/ml), the CD9 protein expression was 7.27%, the CXCR4 protein expression is given as 55.26%, the ECAM protein expression is recorded as 14.17% and the NCAM protein expression is 21.1%. Moreover, the SSEA-3 protein expression in assay [8] (5-DAY activin A 100 ng/ml) turned out to be 42.9%. In assay [8] (8-DAY activin A 100 ng/ml), this substance registered a CD9 protein expression of 4.1%, a CXCR4 protein expression of 56.92%, an ECAM protein expression of 1.02% and an NCAM protein expression of 8.86%. This substance also had an SSEA-3 protein expression in [8] (8-DAY activin A 100 ng/ml) of 22.05%. Moreover, the “CXCR4 protein by FACS analysis” value in [8] (following activin A treatment) was “increase”.

Take Wnt-3a: the “expression of DE markers in SA002 line” value in assay [9] was “required addition of Wnt-3A for robust expression”. Besides, the “expression of CXCR4 (CD184) by FACS” value in assay [10] (20 ng/ml Wnt-3a in DE cultures, day 5, H7P44 and H9P46) was “robust expression”. In addition, the “expression of definitive endoderm markers (real-time PCR)” value in assay [10] (low serum+AA+/-Wnt ligands, H7 and H9, five days) is “significant up regulation”.

The record behind these values is patent US9096832B2, “Differentiation of human embryonic stem cells” (LifeScan, Inc., priority 2007, dated 2015).
